According to PubChem BioAssay (NCI):
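Assay format: 96-well plates, 48-hour exposure. At the GI50, growth is halved. TGI: total growth inhibition.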

Legend:
Experiment in all cases: inhibition of tumour cell growth, NCI panel, 48 h
[1] = tested on: UACC-62 melanoma
[2] = tested on: NCI-H460 lung
[3] = tested on: SF-268 CNS
[4] = tested on: NCI-H23 lung
[5] = tested on: IGROV1 ovarian
[6] = tested on: RPMI-8226 leukemia
[7] = tested on: UO-31 renal
[8] = tested on: OVCAR-3 ovarian
[9] = tested on: A549 NSCLC
[10] = tested on: HCT-15 colon

NC(=S)N/N=C/c1ccc(OC(=O)COc2ccccc2Cl)cn1
TGI [1]: 42.7 µM
TGI [2]: > 100 µM
TGI [3]: > 100 µM
TGI [4]: > 70.5 µM
TGI [5]: > 100 µM
TGI [6]: > 100 µM
TGI [7]: 98.5 µM
TGI [8]: 99.1 µM
TGI [9]: > 100 µM
TGI [10]: > 100 µM

CCOC(=O)Oc1ccc2c(c1)c(=O)c1c(NCCCN(CC)CC)ccc3nnn2c31
TGI [1]: 29 µM
TGI [2]: 15.2 µM
TGI [3]: 28.2 µM
TGI [4]: 29.3 µM
TGI [5]: 34.2 µM
TGI [6]: 10.1 µM
TGI [7]: 15 µM
TGI [8]: 20 µM
TGI [9]: 16.9 µM
TGI [10]: 21 µM

C/C([O-])=C(/c1nc(-c2ccc([N+](=O)[O-])o2)no1)[n+]1cc(C)ccc1C
TGI [1]: 21.3 µM
TGI [2]: 17.5 µM
TGI [3]: 62.3 µM
TGI [4]: 24.9 µM
TGI [5]: > 81.6 µM
TGI [6]: 55.2 µM
TGI [7]: 40 µM
TGI [8]: 37.7 µM
TGI [9]: 30.8 µM
TGI [10]: 22.3 µM

Cc1nc(N(CCO)CCO)c2sc(=S)n(-c3ccccc3)c2n1
TGI [1]: > 100 µM
TGI [2]: > 100 µM
TGI [3]: > 100 µM
TGI [4]: > 100 µM
TGI [5]: > 100 µM
TGI [6]: > 100 µM
TGI [7]: > 100 µM
TGI [8]: > 100 µM
TGI [9]: > 100 µM

COc1cc(Cc2ccc3c(c2C#N)N(C)c2ccccc2S3)cc(OC)c1OC
TGI [2]: > 100 µM
TGI [3]: > 100 µM
TGI [4]: > 100 µM
TGI [5]: > 100 µM
TGI [6]: > 100 µM
TGI [7]: > 100 µM
TGI [8]: > 100 µM
TGI [9]: > 100 µM
TGI [10]: 61.3 µM

C/C(=N\NC(=S)Nc1ccc(Cl)cc1)c1nc2ncccc2[nH]1
TGI [1]: 12.8 µM
TGI [2]: 4.14 µM
TGI [3]: > 100 µM
TGI [4]: 21.5 µM
TGI [5]: 21.5 µM
TGI [6]: > 100 µM
TGI [7]: 5.13 µM
TGI [8]: 10.5 µM
TGI [9]: > 100 µM
TGI [10]: 14.5 µM

COc1cc(C2S/C(=C/c3ccccc3)C(=O)N2c2ccccc2Cl)cc(OC)c1OC (stereo unspecified)
TGI [1]: > 100 µM
TGI [3]: > 100 µM
TGI [4]: > 100 µM
TGI [7]: > 100 µM
TGI [9]: > 100 µM
TGI [10]: > 100 µM

Cc1ccc(S(=O)(=O)Nc2cc(Sc3ccccc3)c(O)c3ccccc23)cc1
GI50 [1]: 2410 nM
TGI [1]: 6.72 µM
GI50 [2]: 17.6 µM
TGI [2]: 34.5 µM
GI50 [3]: 2570 nM
TGI [3]: 8.07 µM
GI50 [4]: 4.44 µM
TGI [4]: 22 µM
GI50 [5]: 3.5 µM
TGI [5]: 10.4 µM
GI50 [6]: 3.4 µM
TGI [6]: 22.8 µM
GI50 [7]: 2880 nM
TGI [7]: 10.9 µM
GI50 [8]: 2850 nM
TGI [8]: 8.24 µM
GI50 [9]: 12.3 µM
TGI [9]: 28.5 µM
GI50 [10]: 6.81 µM
TGI [10]: 25.1 µM

COC(=O)C1=C(O)C(C(=O)OC)[C@@]2(O)[C@@H](C(=O)OC)CC[C@@H]1[C@@H]2C(=O)OC (stereo partly specified)
TGI [1]: > 100 µM
TGI [2]: 35.9 µM
TGI [3]: 75.5 µM
TGI [4]: 56.6 µM
TGI [6]: 97.3 µM
TGI [7]: > 100 µM
TGI [8]: 58.8 µM
TGI [10]: 64.2 µM

Cc1ncc(CO)c(C=NCCCCCCN=Cc2c(CO)cnc(C)c2O)c1O
TGI [1]: > 100 µM
TGI [2]: > 100 µM
TGI [3]: > 100 µM
TGI [4]: > 100 µM
TGI [5]: > 100 µM
TGI [6]: > 100 µM
TGI [7]: > 100 µM
TGI [8]: > 100 µM
TGI [9]: > 100 µM
TGI [10]: > 100 µM

CCOC(=O)C(=O)Nc1cccc(C)c1C
TGI [1]: > 100 µM
TGI [2]: > 100 µM
TGI [3]: > 100 µM
TGI [4]: > 100 µM
TGI [5]: > 100 µM
TGI [6]: > 100 µM
TGI [7]: > 100 µM
TGI [8]: > 100 µM
TGI [9]: > 100 µM
TGI [10]: > 100 µM

O=c1oc2c(ccc3c(O)cccc32)c2c1CCCC2
TGI [1]: 27.2 µM
TGI [2]: > 100 µM
TGI [3]: 40.8 µM
TGI [4]: > 100 µM
TGI [5]: > 100 µM
TGI [6]: > 100 µM
TGI [7]: > 100 µM
TGI [8]: > 100 µM
TGI [9]: > 100 µM

CCOC(=O)/C(=N/Nc1ccc(Cl)cc1)N1C(=S)C=C(C)NN(C)C1=S
TGI [1]: 90.6 µM
TGI [2]: > 100 µM
TGI [3]: 85 µM
TGI [4]: > 100 µM
TGI [5]: > 100 µM
TGI [6]: > 100 µM
TGI [7]: > 100 µM
TGI [8]: > 100 µM
TGI [9]: > 100 µM
TGI [10]: > 100 µM

O=C(O)CN=c1c2ccccc2n(O)c2ccccc12
TGI [1]: > 100 µM
TGI [2]: > 100 µM
TGI [3]: > 100 µM
TGI [4]: > 100 µM
TGI [5]: > 100 µM
TGI [6]: > 100 µM
TGI [7]: > 100 µM
TGI [8]: > 100 µM
TGI [9]: > 100 µM
TGI [10]: > 100 µM
